Source: patent US20070154579A1, “Morinda Citrifolia Based Formulation And Methods For Weight Management” (priority 2005, published 2007)
pIC50, pKi: −log10 of the molar value. “Also recorded” adds a separate entry of the source. Read-outs that look alike come from different tables or passages of the source. Square brackets hold non-standard residues; d marks the D form. Peptide text beside a SMILES is read from it. Nle = CCCC[C@H](N)C(=O)O; βAla = NCCC(=O)O

Tests used:
Adrenergic β1 = Adrenergic β1 (Homo sapiens, UniProt P08588); settings: ephedrine, from research studies; cited from earlier work
Adrenergic β2 = Adrenergic β2 (Homo sapiens, UniProt P07550); settings: ephedrine, from research studies; cited from earlier work
Adrenergic β3 = Adrenergic β3 (Homo sapiens, UniProt P13945); settings: ephedrine, from research studies; cited from earlier work
Bombesin BB3 [1] = target: T1, Bombesin BB3 (Homo sapiens, UniProt P32247); test: Bombesin BB3 radioligand binding; settings: batch 147476; read-out: Concurrent IC50 (reference compound)
T1 construct: expressed in transfected cells; host or cells: Balb 3T3 cells
T1 sequence (P32247 1-399): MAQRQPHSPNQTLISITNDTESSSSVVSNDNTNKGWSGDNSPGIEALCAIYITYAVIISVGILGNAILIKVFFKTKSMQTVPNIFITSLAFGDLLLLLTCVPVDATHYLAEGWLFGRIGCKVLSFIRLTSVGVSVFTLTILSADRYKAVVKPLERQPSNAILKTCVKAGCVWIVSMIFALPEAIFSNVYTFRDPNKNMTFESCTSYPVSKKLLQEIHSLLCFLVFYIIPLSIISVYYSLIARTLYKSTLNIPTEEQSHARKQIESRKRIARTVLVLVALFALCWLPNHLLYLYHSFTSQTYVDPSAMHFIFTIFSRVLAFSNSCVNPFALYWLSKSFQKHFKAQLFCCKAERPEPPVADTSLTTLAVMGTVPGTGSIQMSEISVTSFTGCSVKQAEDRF
Description: The effects of juice from Morinda Citrifolia (noni) on metabolic rate were analyzed by analyzing the bombesin response. “TNJ” refers to Morinda citrifolia juice processed according to this invention and commericially available as […] NONI® juice, “Sample #100” is a Noni concentrate and “TNCMP1” refers to Morinda citrifolia evaporative concentrate. The percentage of concentration represents the concentration strength of the particular concentrate tested; that is, the strength of concentration relative to the Morinda citrifolia fruit juice from which the concentrate was obtained.
The following materials and methods were utilized in the Bombesin research.

Bombesin BB3 [2] = target: T1, Bombesin BB3; settings: historical value, cited from earlier work
Bombesin BB1 = Bombesin BB1 (Homo sapiens, UniProt P28336); settings: historical value, Hill coefficient; cited from earlier work
Somatostatin sst5 = Somatostatin sst5 (Homo sapiens, UniProt P35346); settings: historical value, Hill coefficient; cited from earlier work
Chain of Somatostatin sst5 (P35346 whole entry): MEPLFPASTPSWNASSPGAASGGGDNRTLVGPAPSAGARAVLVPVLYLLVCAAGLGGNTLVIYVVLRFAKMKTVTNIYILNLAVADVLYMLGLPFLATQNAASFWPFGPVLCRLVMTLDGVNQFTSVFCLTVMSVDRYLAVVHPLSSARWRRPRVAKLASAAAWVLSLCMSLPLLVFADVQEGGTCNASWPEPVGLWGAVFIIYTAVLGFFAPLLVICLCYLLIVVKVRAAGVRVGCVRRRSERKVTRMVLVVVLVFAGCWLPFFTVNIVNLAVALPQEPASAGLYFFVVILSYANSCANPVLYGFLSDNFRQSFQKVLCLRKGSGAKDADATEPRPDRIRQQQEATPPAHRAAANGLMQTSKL

Chain of Adrenergic β2 (P07550 whole entry): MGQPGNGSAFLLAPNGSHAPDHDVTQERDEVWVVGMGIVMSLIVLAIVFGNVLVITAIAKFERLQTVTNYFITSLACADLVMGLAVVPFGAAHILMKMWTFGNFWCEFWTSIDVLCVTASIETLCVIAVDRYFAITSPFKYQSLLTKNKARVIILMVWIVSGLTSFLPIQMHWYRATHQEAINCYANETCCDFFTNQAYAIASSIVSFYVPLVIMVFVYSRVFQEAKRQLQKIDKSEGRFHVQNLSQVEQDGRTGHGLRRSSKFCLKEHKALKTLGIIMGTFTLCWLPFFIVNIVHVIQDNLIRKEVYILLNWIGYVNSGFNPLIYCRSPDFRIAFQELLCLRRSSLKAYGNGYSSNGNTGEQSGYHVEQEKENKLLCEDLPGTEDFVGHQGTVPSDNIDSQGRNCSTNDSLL
Chain of Adrenergic β1 (P08588 whole entry): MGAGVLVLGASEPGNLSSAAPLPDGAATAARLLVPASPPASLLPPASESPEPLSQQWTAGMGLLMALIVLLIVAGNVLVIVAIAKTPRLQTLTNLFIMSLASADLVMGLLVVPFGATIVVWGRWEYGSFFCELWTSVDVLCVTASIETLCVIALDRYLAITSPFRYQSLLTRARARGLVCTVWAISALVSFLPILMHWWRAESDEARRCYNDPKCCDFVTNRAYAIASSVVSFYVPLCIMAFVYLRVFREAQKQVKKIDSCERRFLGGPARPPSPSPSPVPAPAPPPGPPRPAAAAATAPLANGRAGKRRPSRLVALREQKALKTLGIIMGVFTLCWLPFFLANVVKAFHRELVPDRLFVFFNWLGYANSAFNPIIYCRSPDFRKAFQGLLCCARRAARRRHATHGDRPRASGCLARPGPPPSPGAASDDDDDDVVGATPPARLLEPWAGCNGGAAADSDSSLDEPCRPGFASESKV
Chain of Adrenergic β3 (P13945 whole entry): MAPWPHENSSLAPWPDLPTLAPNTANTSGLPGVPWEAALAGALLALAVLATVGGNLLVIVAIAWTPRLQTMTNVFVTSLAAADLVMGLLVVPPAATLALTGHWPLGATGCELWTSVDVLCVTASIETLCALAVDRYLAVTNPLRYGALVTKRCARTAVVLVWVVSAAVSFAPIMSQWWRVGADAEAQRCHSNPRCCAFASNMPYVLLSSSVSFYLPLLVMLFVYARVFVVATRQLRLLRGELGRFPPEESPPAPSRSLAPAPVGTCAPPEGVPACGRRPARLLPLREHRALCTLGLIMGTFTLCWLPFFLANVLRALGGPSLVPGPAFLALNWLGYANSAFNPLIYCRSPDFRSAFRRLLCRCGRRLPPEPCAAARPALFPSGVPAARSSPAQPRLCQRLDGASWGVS
Chain of Bombesin BB1 (P28336 whole entry): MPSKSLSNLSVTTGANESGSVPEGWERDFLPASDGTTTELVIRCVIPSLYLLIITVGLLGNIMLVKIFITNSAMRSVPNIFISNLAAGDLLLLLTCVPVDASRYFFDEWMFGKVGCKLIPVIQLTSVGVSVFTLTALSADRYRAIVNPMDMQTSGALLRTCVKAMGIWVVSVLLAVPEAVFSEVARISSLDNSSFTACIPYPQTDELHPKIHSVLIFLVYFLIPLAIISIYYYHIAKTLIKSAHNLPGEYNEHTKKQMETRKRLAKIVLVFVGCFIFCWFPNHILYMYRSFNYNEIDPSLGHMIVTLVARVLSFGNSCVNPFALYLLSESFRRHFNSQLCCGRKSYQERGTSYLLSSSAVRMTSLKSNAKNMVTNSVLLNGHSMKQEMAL

CN[C@@H](C)[C@H](O)c1ccccc1 [ephedrine]
adrenergic β-1 response (agonist/antagonist) (Adrenergic β1): inhibits; also recorded: antagonist
adrenergic β-2 response (agonist/antagonist) (Adrenergic β2): inhibits; also recorded: antagonist
adrenergic β-3 response (agonist/antagonist) (Adrenergic β3): activating; also recorded: agonist

CCCC[C@H](NC(=O)[C@H](Cc1ccccc1)NC(=O)[C@H](Cc1c[nH]cn1)NC(=O)CCNC(=O)[C@@H](NC(=O)[C@H](C)NC(=O)[C@H](Cc1c[nH]c2ccccc12)NC(=O)[C@H](CCC(N)=O)NC(=O)[C@H](N)Cc1ccccc1)C(C)C)C(N)=O [(D-Phe^6, β-Ala^11, Phe^13, Nle^14)-BN (6-14)] (H-[dF]QWAV[βAla]HF[Nle]-NH2; N-terminus and C-terminus assumed)
pIC50 (Bombesin BB3 [1]): 8.22
Historical nH (reference compound) (Bombesin BB3 [2]; Hill coefficient): 0.9
pIC50 (Bombesin BB3 [2]; read-out: Historical IC50 (reference compound)): 8.21
pKi (Bombesin BB3 [2]; read-out: Historical Ki (reference compound)): 8.39

Neuromedin B
Historical nH (reference compound) (Bombesin BB1): 0.9

Somatostatin-14
Historical nH (reference compound; no head) (Somatostatin sst5): 0.8
